# Measurements from PMC11528067, “Structural Bases of Dihydroxy Acid Dehydratase Inhibition and Biodesign for Self-Resistance” (Biodesign Research, 2024).
# Values joined by “and” are separate entries in the source; they are usually repeats but may differ in a detail not shown here. Equal entries are not always repeated.
# How the values were obtained:
# [1] = molecular target: T1, AthDHAD (Arabidopsis thaliana, UniProt Q9LIR4); test: In vitro activity and AA inhibition assay of AthDHAD; assay type: biochemical, A. thaliana; settings: AthDHAD wild type
# T1 construct: made in house; host or cells: E. coli BL21(DE3)
# T1 sequence (Q9LIR4 35-608): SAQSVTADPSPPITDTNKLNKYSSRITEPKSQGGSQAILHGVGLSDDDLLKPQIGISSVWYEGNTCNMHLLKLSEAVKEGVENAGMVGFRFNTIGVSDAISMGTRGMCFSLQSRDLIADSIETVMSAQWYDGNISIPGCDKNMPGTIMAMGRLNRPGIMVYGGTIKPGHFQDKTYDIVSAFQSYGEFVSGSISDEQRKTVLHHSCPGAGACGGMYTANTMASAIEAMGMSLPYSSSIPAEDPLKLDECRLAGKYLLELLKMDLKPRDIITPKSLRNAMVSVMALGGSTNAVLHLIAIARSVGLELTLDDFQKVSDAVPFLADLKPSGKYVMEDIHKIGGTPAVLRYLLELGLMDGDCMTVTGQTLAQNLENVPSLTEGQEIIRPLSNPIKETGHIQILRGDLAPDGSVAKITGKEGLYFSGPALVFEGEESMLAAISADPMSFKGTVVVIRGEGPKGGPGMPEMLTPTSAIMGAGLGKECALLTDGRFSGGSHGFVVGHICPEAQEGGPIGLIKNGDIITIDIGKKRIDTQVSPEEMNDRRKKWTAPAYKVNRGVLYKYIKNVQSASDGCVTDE
# Protocol: (§1) In vitro activity assays were carried out in 25 μl of reaction mixture containing A10 buffer without NaCl. The Michaelis–Menten constants (kcat, KM) for each enzyme were calculated by fitting the following formula to the observed reaction rate. V=VmaxS/KM+S Vmax=kcatE0
# (§2) The inhibition percentages of AA on AthDHADs were determined using in vitro biochemical assays and calculated with the following equation:
# (§3) Inhibition percentage = 100 − 100 × (initial reaction rate with AA/initial reaction rate without AA)
# (§4) The inhibition assays were conducted with either 10 mM (±)-sodium-α,β-dihydroxyisovalerate (DHI) or 10 mM (±)-sodium-α,β-dihydroxymethylvalerate hydrate (DHMV), along with 0.5 μM of purified AthDHAD enzyme or its mutants. The reaction was initiated by adding the corresponding enzymes, followed by a 20-min incubation at 28°C. To halt the reactions, an equal volume of acetonitrile was introduced. Subsequently, approximately 0.04 volumes of 100 mM phenylhydrazine were added to facilitate the derivatization of the product, either 2-keto-isovalerate or 2-keto-3-methylvalerate, at room temperature for 30 min. For HPLC analysis, 10 μl of the reaction mixture was utilized.
# [2] = molecular target: T2, AthDHAD-I177L (Arabidopsis thaliana, UniProt Q9LIR4, I211L); test: In vitro activity and AA inhibition assay of AthDHAD mutant I177L; assay type: biochemical, A. thaliana
# T2 construct: made in house; host or cells: E. coli BL21(DE3)
# T2 sequence (Q9LIR4 35-608 I211L): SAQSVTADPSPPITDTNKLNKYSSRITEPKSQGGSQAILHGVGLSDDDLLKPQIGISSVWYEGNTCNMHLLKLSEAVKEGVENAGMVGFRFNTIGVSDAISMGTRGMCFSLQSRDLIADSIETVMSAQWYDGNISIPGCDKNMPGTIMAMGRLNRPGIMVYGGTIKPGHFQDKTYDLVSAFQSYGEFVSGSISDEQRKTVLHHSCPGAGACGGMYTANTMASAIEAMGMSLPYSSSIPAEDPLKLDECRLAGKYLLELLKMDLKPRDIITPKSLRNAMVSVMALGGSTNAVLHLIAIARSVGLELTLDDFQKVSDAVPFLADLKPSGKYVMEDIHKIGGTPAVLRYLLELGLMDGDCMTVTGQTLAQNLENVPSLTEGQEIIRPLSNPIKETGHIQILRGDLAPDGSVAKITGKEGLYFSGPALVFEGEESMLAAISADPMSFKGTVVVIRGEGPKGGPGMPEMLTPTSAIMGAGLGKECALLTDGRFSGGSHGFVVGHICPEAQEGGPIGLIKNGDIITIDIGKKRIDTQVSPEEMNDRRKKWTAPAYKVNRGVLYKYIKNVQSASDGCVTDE
# Protocol: as §1, §2, §3, §4
# [3] = molecular target: T3, AthDHAD-I177F (Arabidopsis thaliana, UniProt Q9LIR4, I211F); test: In vitro activity and AA inhibition assay of AthDHAD mutant I177F; assay type: biochemical, A. thaliana
# T3 construct: made in house; host or cells: E. coli BL21(DE3)
# T3 sequence (Q9LIR4 35-608 I211F): as the sequence (Q9LIR4 35-608 I211L) above, with L177F counted along it
# Protocol: as §1, §2, §3, §4
# [4] = molecular target: T4, AthDHAD-V178L (Arabidopsis thaliana, UniProt Q9LIR4, V212L); test: In vitro activity and AA inhibition assay of AthDHAD mutant V178L; assay type: biochemical, A. thaliana; settings: DHI as substrate (10 mM), 0.5 μM enzyme
# T4 construct: made in house; host or cells: E. coli BL21(DE3)
# T4 sequence (Q9LIR4 35-608 V212L): as the sequence (Q9LIR4 35-608 I211L) above, with L177I, V178L counted along it
# Protocol: as §1, §2, §3, §4
# [5] = molecular target: T5, AthDHAD-V178I (Arabidopsis thaliana, UniProt Q9LIR4, V212I); test: In vitro activity and AA inhibition assay of AthDHAD mutant V178I; assay type: biochemical, A. thaliana; settings: DHI as substrate (10 mM), 0.5 μM enzyme
# T5 construct: made in house; host or cells: E. coli BL21(DE3)
# T5 sequence (Q9LIR4 35-608 V212I): as the sequence (Q9LIR4 35-608 I211L) above, with L177I, V178I counted along it
# Protocol: as §1, §2, §3, §4
# [6] = molecular target: T6, AthDHAD-V178F (Arabidopsis thaliana, UniProt Q9LIR4, V212F); test: In vitro activity and AA inhibition assay of AthDHAD mutant V178F; assay type: biochemical, A. thaliana; settings: DHI as substrate (10 mM), 0.5 μM enzyme
# T6 construct: made in house; host or cells: E. coli BL21(DE3)
# T6 sequence (Q9LIR4 35-608 V212F): as the sequence (Q9LIR4 35-608 I211L) above, with L177I, V178F counted along it
# Protocol: as §1, §2, §3, §4
# [7] = molecular target: T7, AthDHAD-V178W (Arabidopsis thaliana, UniProt Q9LIR4, V212W); test: In vitro activity and AA inhibition assay of AthDHAD mutant V178W; assay type: biochemical, A. thaliana; settings: DHI as substrate (10 mM), 0.5 μM enzyme
# T7 construct: made in house; host or cells: E. coli BL21(DE3)
# T7 sequence (Q9LIR4 35-608 V212W): as the sequence (Q9LIR4 35-608 I211L) above, with L177I, V178W counted along it
# Protocol: as §1, §2, §3, §4
# [8] = molecular target: T8, AthDHAD-V496L (Arabidopsis thaliana, UniProt Q9LIR4, V530L); test: In vitro activity and AA inhibition assay of AthDHAD mutant V496L; assay type: biochemical, A. thaliana; settings: DHI as substrate (10 mM), 0.5 μM enzyme
# T8 construct: made in house; host or cells: E. coli BL21(DE3)
# T8 sequence (Q9LIR4 35-608 V530L): as the sequence (Q9LIR4 35-608 I211L) above, with L177I, V496L counted along it
# Protocol: as §1, §2, §3, §4
# [9] = molecular target: T9, AthDHAD-V496I (Arabidopsis thaliana, UniProt Q9LIR4, V530I); test: In vitro activity and AA inhibition assay of AthDHAD mutant V496I; assay type: biochemical, A. thaliana
# T9 construct: made in house; host or cells: E. coli BL21(DE3)
# T9 sequence (Q9LIR4 35-608 V530I): as the sequence (Q9LIR4 35-608 I211L) above, with L177I, V496I counted along it
# Protocol: as §1, §2, §3, §4
# [10] = molecular target: T10, AthDHAD-V496F (Arabidopsis thaliana, UniProt Q9LIR4, V530F); test: In vitro activity and AA inhibition assay of AthDHAD mutant V496F; assay type: biochemical, A. thaliana
# T10 construct: made in house; host or cells: E. coli BL21(DE3)
# T10 sequence (Q9LIR4 35-608 V530F): as the sequence (Q9LIR4 35-608 I211L) above, with L177I, V496F counted along it
# Protocol: as §1, §2, §3, §4
# [11] = molecular target: T11, AthDHAD-V497L (Arabidopsis thaliana, UniProt Q9LIR4, V531L); test: In vitro activity and AA inhibition assay of AthDHAD mutant V497L; assay type: biochemical, A. thaliana
# T11 construct: made in house; host or cells: E. coli BL21(DE3)
# T11 sequence (Q9LIR4 35-608 V531L): as the sequence (Q9LIR4 35-608 I211L) above, with L177I, V497L counted along it
# Protocol: as §1, §2, §3, §4
# [12] = molecular target: T12, AthDHAD-V497I (Arabidopsis thaliana, UniProt Q9LIR4, V531I); test: In vitro activity and AA inhibition assay of AthDHAD mutant V497I; assay type: biochemical, A. thaliana; settings: DHI as substrate (10 mM), 0.5 μM enzyme
# T12 construct: made in house; host or cells: E. coli BL21(DE3)
# T12 sequence (Q9LIR4 35-608 V531I): as the sequence (Q9LIR4 35-608 I211L) above, with L177I, V497I counted along it
# Protocol: as §1, §2, §3, §4
# [13] = molecular target: T13, AthDHAD-V497F (Arabidopsis thaliana, UniProt Q9LIR4, V531F); test: In vitro activity and AA inhibition assay of AthDHAD mutant V497F; assay type: biochemical, A. thaliana; settings: DHI as substrate (10 mM), 0.5 μM enzyme
# T13 construct: made in house; host or cells: E. coli BL21(DE3)
# T13 sequence (Q9LIR4 35-608 V531F): as the sequence (Q9LIR4 35-608 I211L) above, with L177I, V497F counted along it
# Protocol: as §1, §2, §3, §4
# [14] = molecular target: T14, AthDHAD-I177L-V496L (Arabidopsis thaliana, UniProt Q9LIR4, I211L/V530L); test: In vitro activity and AA inhibition assay of AthDHAD double mutant I177L/V496L; assay type: biochemical, A. thaliana
# T14 construct: made in house; host or cells: E. coli BL21(DE3)
# T14 sequence (Q9LIR4 35-608 I211L/V530L): as the sequence (Q9LIR4 35-608 I211L) above, with V496L counted along it
# Protocol: as §1, §2, §3, §4
# [15] = molecular target: T15, AthDHAD-I177L-V497L (Arabidopsis thaliana, UniProt Q9LIR4, I211L/V531L); test: In vitro activity and AA inhibition assay of AthDHAD double mutant I177L/V497L; assay type: biochemical, A. thaliana
# T15 construct: made in house; host or cells: E. coli BL21(DE3)
# T15 sequence (Q9LIR4 35-608 I211L/V531L): as the sequence (Q9LIR4 35-608 I211L) above, with V497L counted along it
# Protocol: as §1, §2, §3, §4
# [16] = molecular target: T16, AthDHAD-V178L-V497L (Arabidopsis thaliana, UniProt Q9LIR4, V212L/V531L); test: In vitro activity and AA inhibition assay of AthDHAD double mutant V178L/V497L; assay type: biochemical, A. thaliana
# T16 construct: made in house; host or cells: E. coli BL21(DE3)
# T16 sequence (Q9LIR4 35-608 V212L/V531L): as the sequence (Q9LIR4 35-608 I211L) above, with L177I, V178L, V497L counted along it
# Protocol: as §1, §2, §3, §4
# [17] = tested on: A. thaliana transgenic lines with mutant AthDHAD (V178L and V496L); test: Growth inhibition of AA on transgenic A. thaliana with mutant AthDHAD (V178L and V496L); assay type: in vivo; settings: 100 μM AA on Murashige and Skoog medium, day 7; V178L and V496L lines compared to line expressing AstD
# Source text: The gene block containing DHAD variants, and the 2XFLAG-tag was synthesized and then cloned into modified pEG302 vector using Gateway LR Clonase II Enzyme Mix (Thermo Fisher Scientific). Ubiquitin-10 promoter was used to drive the expression of DHAD variants. The construct was electrotransformed into Agrobacterium tumefaciens strain Agl0 and then transformed into A. thaliana rdr6-15 in which the transgene silencing pathway is blocked. Positive transgenic plants were selected using the hygromycin B and were tested for survival in the presence of AA.
# A. thaliana seeds were sterilized with 70% ethanol and sown on Murashige and Skoog medium supplemented with either ethanol control or 100 μM AA. Photos were taken, and fresh weights were measured at day 7.
# [18] = molecular target: T1, AthDHAD; settings: cited from earlier work
# [19] = tested on: AteDHAD; parameters: method as in PMID 29995859; settings: housekeeping DHAD from A. terreus (XP_001208445.1); cited from earlier work
# [20] = tested on: AstD; settings: cited from earlier work
# [21] = tested on: A. thaliana; parameters: method as in PMID 29995859; settings: A. thaliana as a model plant organism; cited from earlier work
# [22] = tested on: Transgenic A. thaliana expressing AstD; parameters: method as in PMID 29995859; settings: cited from earlier work
compound,measurement,setting,value
"CC[C@@](C)(O)[C@@H](O)C(=O)O (racemic) [DHMV, (±)-sodium-α,β-dihydroxymethylvalerate hydrate, reference compound]",Km,[1]; substrate DHMV,4 ± 0.45 mM
same,kcat,[1]; substrate DHMV,6.50 ± 0.32 s⁻¹
"CC(C)=C1CCC23COC(C2)C(O)(C(=O)O)CCC13 (centres unmarked) [AA, aspterric acid]",IC50,"[1]; DHI as substrate (10 mM), 0.5 μM enzyme",250 nM and 249 nM
same,IC50,[2],50 ± 1 nM
same,IC50,[3],37 ± 8.77 µM
same,IC50,[4],970 nM and 974 nM
same,IC50,[5],430 nM and 431 nM
same,IC50,[6],6 µM and 5.99 µM
same,IC50,[7],2340 nM
same,IC50,[8],820 nM and 824 nM
same,IC50,[9],1140 ± 52 nM
same,IC50,[10],2940 nM
same,IC50,[11],59 nM
same,IC50,[12],73.3 nM and 73 nM
same,IC50,[13],1250 nM
same,IC50,[14],309 ± 74 nM
same,IC50,[15],28 nM
same,IC50,[16],396 ± 11 nM
same,growth of transgenic plants in the presence of AA,[17],not able to rescue the growth of the plants
same,Ki,[18]; binding of AA to AthDHAD as a competitive inhibitor,~300 nM
same,mode of inhibition,[18]; housekeeping DHAD from A. thaliana (AT3G23940),competitive inhibitor
same,mode of inhibition,[19],competitive inhibitor
same,AA resistance observed in AstD,[20]; reported,over 8 mM
same,sensitivity of AstD to AA,[20]; within the solubility limit (8 mM),completely insensitive
same,herbicidal effect in spray experiments,[21],effective as an herbicide
same,resistance of transgenic plants to AA,[22],strong resistance
